Test results from patent publication US10669272B2, “Substituted naphthyridinone compounds useful as T cell activators” (BRISTOL-MYERS SQUIBB COMPANY, priority 2018, dated 2020).
Read-outs that look alike come from different tables or passages of the source.

Legend:
Human venous whole blood = assay: Human whole blood IFN-γ assay; assay type: cell-based; details: human whole blood, normalized to 3 μM reference compound with anti-CD3 plus anti-CD28 as 100% activation, read-out: INFg Whole Blood Normalized Agonist EC50;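 also: blood from healthy donors exposed to compound for 1 h before stimulation with anti-CD3 and anti-CD28 at 1 µg/mL each, IFN-γ quantified in supernatant by AlphaLISA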
Description: Human Whole Blood IFN-γ Assay
Human venous whole blood (22.5 μL per well), obtained from healthy donors, was pre-treated with compounds for one hour at 37° C. in a humidified 95% air/5% CO2 incubator. The blood was stimulated with 2.5 μL anti-human CD3 and anti-CD28 mAb at a final concentration of 1 μg/mL each for 24 hours at 37° C. IFN-γ in the supernatants was measured using AlphLISA kit (Cat # AL217).

human DGKζ = target: T1, human DGKζ (Homo sapiens, UniProt Q13574); assay: DGKζ LIPGLO assay (extruded liposome substrate), in vitro DGK inhibition; assay type: biochemical; details: liposome (LIPGLO) assay; read-out: DGKz LIPGLO IC50
T1 construct: TVMV protease cleavage site (C); Hexa-His (C); made in house; host or cells: Sf9 insect cells (baculovirus, Bac-to-Bac)
T1 sequence (Q13574 with tags, fused parts or gaps isoform Q13574-4): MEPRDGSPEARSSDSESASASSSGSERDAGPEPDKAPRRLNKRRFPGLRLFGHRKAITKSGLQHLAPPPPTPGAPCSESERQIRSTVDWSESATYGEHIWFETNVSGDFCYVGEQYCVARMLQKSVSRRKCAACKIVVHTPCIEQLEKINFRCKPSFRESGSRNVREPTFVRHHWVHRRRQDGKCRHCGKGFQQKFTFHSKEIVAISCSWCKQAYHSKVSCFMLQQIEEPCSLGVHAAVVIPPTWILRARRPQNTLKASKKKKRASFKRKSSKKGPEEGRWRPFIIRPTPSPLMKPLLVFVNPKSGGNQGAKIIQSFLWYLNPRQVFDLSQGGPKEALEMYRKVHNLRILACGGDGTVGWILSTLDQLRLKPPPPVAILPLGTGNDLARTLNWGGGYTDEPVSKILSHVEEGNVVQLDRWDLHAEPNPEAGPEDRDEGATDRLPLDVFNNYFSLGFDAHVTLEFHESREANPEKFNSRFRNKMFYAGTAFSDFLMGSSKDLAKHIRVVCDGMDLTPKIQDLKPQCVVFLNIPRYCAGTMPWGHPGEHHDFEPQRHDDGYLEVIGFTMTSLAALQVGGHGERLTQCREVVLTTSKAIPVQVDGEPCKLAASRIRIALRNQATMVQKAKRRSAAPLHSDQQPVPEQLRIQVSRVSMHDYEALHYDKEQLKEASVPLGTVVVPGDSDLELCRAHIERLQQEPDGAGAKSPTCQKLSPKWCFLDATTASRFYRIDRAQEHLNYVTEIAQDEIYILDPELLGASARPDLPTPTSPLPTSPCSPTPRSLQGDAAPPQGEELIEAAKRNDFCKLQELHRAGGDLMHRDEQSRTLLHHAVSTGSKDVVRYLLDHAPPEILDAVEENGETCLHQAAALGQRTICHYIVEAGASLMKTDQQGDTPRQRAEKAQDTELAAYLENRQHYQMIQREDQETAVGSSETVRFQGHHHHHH

human DGKα = target: T2, human DGKα (Homo sapiens, UniProt P23743); assay: DGKα LIPGLO assay (extruded liposome substrate), in vitro DGK inhibition; assay type: biochemical; details: liposome (LIPGLO) assay; read-out: DGKa LIPGLO IC50
T2 construct: TVMV protease cleavage site (C); Hexa-His (C); made in house; host or cells: Sf9 insect cells (baculovirus, Bac-to-Bac)
T2 sequence (P23743 with tags, fused parts or gaps): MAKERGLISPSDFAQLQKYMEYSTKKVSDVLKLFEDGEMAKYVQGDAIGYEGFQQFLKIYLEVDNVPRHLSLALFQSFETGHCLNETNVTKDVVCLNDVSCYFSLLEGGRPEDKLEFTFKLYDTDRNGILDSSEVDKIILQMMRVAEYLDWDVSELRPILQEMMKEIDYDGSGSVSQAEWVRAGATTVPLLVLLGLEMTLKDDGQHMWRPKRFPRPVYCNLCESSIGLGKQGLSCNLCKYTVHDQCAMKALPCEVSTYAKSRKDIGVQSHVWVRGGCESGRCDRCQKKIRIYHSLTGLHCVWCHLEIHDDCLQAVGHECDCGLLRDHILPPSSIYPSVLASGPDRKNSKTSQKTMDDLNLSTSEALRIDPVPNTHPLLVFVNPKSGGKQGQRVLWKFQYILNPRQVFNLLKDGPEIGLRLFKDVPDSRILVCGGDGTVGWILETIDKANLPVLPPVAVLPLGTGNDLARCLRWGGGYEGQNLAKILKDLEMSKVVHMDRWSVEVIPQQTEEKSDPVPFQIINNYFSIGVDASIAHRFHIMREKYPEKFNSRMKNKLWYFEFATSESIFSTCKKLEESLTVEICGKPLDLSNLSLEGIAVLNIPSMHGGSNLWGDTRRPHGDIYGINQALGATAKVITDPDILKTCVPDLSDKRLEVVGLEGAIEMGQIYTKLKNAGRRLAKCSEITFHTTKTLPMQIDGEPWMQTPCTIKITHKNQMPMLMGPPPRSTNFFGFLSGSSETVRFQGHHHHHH

SMILES: C[C@@H]1CN(c2cc(=O)n(C)c3ccc(C#N)nc23)[C@@H](C)CN1C(c1ccccn1)c1ccc(F)cc1F (single isomer, unassigned) [Example 683]
- EC50 (Human venous whole blood): 1.5 µM
- IC50 (human DGKζ): 23 µM
- IC50 (human DGKα): 0.47 µM

SMILES: C[C@@H]1CN(c2cc(=O)n(C)c3ccc(C#N)nc23)[C@@H](C)CN1C(c1ccc(F)cn1)c1ccc(F)cc1F (single isomer, unassigned) [Example 684]
- EC50 (Human venous whole blood): 0.35 µM
- IC50 (human DGKζ): 0.49 µM
- IC50 (human DGKα): 0.0069 µM

SMILES: COc1ccc(C(c2cccc(F)c2)N2C[C@H](C)N(c3cc(=O)n(C)c4ccc(C#N)nc34)C[C@H]2C)nc1 (single isomer, unassigned) [Example 686]
- EC50 (Human venous whole blood): 0.56 µM
- IC50 (human DGKζ): 3.4 µM
- IC50 (human DGKα): 4.3 µM

SMILES: C[C@@H]1CN(c2cc(=O)n(C)c3ccc(C#N)nc23)[C@@H](C)CN1C(c1ccc(F)cc1)c1cccc(S(C)(=O)=O)c1 (single isomer, unassigned) [Example 688]
- EC50 (Human venous whole blood): 13 µM
- IC50 (human DGKζ): 24 µM
- IC50 (human DGKα): 83 µM

SMILES: C[C@@H]1CN(c2cc(=O)n(C)c3ccc(C#N)nc23)[C@@H](C)CN1C(c1ccc(F)cc1)c1cccc(S(C)(=O)=O)c1 (single isomer, unassigned) [Example 689]
- EC50 (Human venous whole blood): 1.5 µM
- IC50 (human DGKζ): 3 µM
- IC50 (human DGKα): 7.6 µM

SMILES: C[C@@H]1CN(c2cc(=O)n(C)c3ccc(C#N)nc23)[C@@H](C)CN1C(c1ccc(F)cc1)c1c(F)cc(F)cc1F (single isomer, unassigned) [Example 692]
- EC50 (Human venous whole blood): 0.68 µM
- IC50 (human DGKζ): 2.5 µM
- IC50 (human DGKα): 0.81 µM

SMILES: C[C@@H]1CN(c2cc(=O)n(C)c3ccc(C#N)nc23)[C@@H](C)CN1C(c1ccc(F)cc1)c1c(F)cc(F)cc1F (single isomer, unassigned) [Example 693]
- EC50 (Human venous whole blood): 0.29 µM
- IC50 (human DGKζ): 0.57 µM
- IC50 (human DGKα): 2.2 µM

SMILES: C[C@@H]1CN(c2cc(=O)n(C)c3ccc(C#N)nc23)[C@@H](C)CN1C(c1ccc(F)cc1)c1cccc2ccnn12 (single isomer, unassigned) [Example 695]
- EC50 (Human venous whole blood; Homo sapiens, 24 h): 4.9 µM
- IC50 (human DGKζ): 0.28 µM
- IC50 (human DGKα): 12 µM

SMILES: C[C@@H]1CN(c2cc(=O)n(C)c3ccc(C#N)nc23)[C@@H](C)CN1C(c1ccc(F)cc1)c1cccc(C(F)F)n1 (single isomer, unassigned) [Example 696]
- EC50 (Human venous whole blood): 0.42 µM
- IC50 (human DGKζ): 0.24 µM
- IC50 (human DGKα): 0.24 µM

SMILES: C[C@@H]1CN(c2cc(=O)n(C)c3ccc(C#N)nc23)[C@@H](C)CN1C(c1ccc(F)cc1)c1cccc(C(F)F)n1 (single isomer, unassigned) [Example 697]
- EC50 (Human venous whole blood): 0.2 µM
- IC50 (human DGKζ): 0.059 µM
- IC50 (human DGKα): 0.74 µM

SMILES: C[C@@H]1CN(c2cc(=O)n(C)c3ccc(C#N)nc23)[C@@H](C)CN1C(c1ccc(F)cc1)c1cnn2ccccc12 (single isomer, unassigned) [Example 698]
- EC50 (Human venous whole blood; Homo sapiens, 24 h): 1 µM
- IC50 (human DGKζ): 0.4 µM
- IC50 (human DGKα): 1.7 µM

SMILES: C[C@@H]1CN(c2cc(=O)n(C)c3ccc(C#N)nc23)[C@@H](C)CN1C(c1ccc(F)cc1)c1cnn2ccccc12 (single isomer, unassigned) [Example 699]
- EC50 (Human venous whole blood): 0.98 µM
- IC50 (human DGKζ): 2.1 µM
- IC50 (human DGKα): 47 µM

SMILES: C[C@@H]1CN(c2cc(=O)n(C)c3ccc(C#N)nc23)[C@@H](C)CN1C(c1ccc(F)cc1)c1nc(C2CC2)cs1 (single isomer, unassigned) [Example 700]
- EC50 (Human venous whole blood): 0.12 µM
- IC50 (human DGKζ): 0.095 µM
- IC50 (human DGKα): 0.38 µM

SMILES: C[C@@H]1CN(c2cc(=O)n(C)c3ccc(C#N)nc23)[C@@H](C)CN1C(c1ccc(F)cc1)c1nc(C2CC2)cs1 (single isomer, unassigned) [Example 701]
- EC50 (Human venous whole blood): 0.05 µM
- IC50 (human DGKζ): 0.032 µM
- IC50 (human DGKα): 0.21 µM
